Results on 17 compounds are retold here after ChEMBL document CHEMBL1201862, “PubChem BioAssay data set” (2004).

The source made the active and inactive calls. Some results are limits rather than exact numbers.

Assay [1] has as its target T1, Zinc finger protein mex-5 (Caenorhabditis elegans, UniProt Q9XUB2).
T1 sequence (Q9XUB2 whole entry): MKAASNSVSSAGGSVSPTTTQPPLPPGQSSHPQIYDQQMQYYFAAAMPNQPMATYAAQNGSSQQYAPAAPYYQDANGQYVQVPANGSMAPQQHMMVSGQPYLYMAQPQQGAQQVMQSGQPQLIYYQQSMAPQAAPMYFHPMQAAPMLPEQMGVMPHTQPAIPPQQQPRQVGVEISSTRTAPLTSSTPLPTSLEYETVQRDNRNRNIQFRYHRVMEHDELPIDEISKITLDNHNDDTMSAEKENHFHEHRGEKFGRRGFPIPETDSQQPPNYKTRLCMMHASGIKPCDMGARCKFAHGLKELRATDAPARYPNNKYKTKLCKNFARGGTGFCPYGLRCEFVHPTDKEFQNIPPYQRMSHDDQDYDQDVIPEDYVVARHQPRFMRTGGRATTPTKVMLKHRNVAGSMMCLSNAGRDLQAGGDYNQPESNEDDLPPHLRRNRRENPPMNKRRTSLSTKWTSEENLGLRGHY
Put plainly: MEX-5/TCR-2 RNA interaction inhibitors, dose response, biochemical, C. elegans, fluorescence polarization (AID 1960). (Polarisation of emitted light reports the rotation of a fluorescent probe.)

Assay [2] can be described thus: microbe, parasite or virus in culture. It is filed as functional. Conditions: Mycobacterium tuberculosis.
Assay [3] concerns the target T2, RNA-binding protein pos-1 (Caenorhabditis elegans, UniProt G5EF15).
T2 sequence (G5EF15 whole entry): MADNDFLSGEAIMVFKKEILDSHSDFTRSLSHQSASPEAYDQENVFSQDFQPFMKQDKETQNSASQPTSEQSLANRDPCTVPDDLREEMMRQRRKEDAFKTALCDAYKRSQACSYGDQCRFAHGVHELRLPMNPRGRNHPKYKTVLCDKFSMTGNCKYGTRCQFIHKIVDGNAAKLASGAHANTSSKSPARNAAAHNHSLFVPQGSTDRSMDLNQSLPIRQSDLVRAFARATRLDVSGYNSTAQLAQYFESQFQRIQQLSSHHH
As to the kind of experiment: inhibitors of POS-1/mex-3 RNA binding, dose response, biochemical, fluorescence polarization (AID 1964).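 Note: purified POS-1 fused to maltose binding protein made in E. coli; potency of compounds blocking POS-1 binding to fluorescent RNA.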

Assay [4] can be described thus: P. falciparum Dd2 growth inhibitors, dose response, SYBR Green, cherry-picked samples (AID 1159567). The format is functional, cell-based.
The target in assay [5] is T3, Fatty acid synthase (Homo sapiens, UniProt P49327). As to the kind of experiment: FAS thioesterase domain inhibitors, dose response, biochemical, kinetic fluorescence intensity (AID 624326).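 Note: rate of fluorescence rise from hydrolysis of a fluorogenic O-methyl fluorescein ester substrate.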 The format is functional.
T3 sequence (P49327 whole entry, the tested form may be a part): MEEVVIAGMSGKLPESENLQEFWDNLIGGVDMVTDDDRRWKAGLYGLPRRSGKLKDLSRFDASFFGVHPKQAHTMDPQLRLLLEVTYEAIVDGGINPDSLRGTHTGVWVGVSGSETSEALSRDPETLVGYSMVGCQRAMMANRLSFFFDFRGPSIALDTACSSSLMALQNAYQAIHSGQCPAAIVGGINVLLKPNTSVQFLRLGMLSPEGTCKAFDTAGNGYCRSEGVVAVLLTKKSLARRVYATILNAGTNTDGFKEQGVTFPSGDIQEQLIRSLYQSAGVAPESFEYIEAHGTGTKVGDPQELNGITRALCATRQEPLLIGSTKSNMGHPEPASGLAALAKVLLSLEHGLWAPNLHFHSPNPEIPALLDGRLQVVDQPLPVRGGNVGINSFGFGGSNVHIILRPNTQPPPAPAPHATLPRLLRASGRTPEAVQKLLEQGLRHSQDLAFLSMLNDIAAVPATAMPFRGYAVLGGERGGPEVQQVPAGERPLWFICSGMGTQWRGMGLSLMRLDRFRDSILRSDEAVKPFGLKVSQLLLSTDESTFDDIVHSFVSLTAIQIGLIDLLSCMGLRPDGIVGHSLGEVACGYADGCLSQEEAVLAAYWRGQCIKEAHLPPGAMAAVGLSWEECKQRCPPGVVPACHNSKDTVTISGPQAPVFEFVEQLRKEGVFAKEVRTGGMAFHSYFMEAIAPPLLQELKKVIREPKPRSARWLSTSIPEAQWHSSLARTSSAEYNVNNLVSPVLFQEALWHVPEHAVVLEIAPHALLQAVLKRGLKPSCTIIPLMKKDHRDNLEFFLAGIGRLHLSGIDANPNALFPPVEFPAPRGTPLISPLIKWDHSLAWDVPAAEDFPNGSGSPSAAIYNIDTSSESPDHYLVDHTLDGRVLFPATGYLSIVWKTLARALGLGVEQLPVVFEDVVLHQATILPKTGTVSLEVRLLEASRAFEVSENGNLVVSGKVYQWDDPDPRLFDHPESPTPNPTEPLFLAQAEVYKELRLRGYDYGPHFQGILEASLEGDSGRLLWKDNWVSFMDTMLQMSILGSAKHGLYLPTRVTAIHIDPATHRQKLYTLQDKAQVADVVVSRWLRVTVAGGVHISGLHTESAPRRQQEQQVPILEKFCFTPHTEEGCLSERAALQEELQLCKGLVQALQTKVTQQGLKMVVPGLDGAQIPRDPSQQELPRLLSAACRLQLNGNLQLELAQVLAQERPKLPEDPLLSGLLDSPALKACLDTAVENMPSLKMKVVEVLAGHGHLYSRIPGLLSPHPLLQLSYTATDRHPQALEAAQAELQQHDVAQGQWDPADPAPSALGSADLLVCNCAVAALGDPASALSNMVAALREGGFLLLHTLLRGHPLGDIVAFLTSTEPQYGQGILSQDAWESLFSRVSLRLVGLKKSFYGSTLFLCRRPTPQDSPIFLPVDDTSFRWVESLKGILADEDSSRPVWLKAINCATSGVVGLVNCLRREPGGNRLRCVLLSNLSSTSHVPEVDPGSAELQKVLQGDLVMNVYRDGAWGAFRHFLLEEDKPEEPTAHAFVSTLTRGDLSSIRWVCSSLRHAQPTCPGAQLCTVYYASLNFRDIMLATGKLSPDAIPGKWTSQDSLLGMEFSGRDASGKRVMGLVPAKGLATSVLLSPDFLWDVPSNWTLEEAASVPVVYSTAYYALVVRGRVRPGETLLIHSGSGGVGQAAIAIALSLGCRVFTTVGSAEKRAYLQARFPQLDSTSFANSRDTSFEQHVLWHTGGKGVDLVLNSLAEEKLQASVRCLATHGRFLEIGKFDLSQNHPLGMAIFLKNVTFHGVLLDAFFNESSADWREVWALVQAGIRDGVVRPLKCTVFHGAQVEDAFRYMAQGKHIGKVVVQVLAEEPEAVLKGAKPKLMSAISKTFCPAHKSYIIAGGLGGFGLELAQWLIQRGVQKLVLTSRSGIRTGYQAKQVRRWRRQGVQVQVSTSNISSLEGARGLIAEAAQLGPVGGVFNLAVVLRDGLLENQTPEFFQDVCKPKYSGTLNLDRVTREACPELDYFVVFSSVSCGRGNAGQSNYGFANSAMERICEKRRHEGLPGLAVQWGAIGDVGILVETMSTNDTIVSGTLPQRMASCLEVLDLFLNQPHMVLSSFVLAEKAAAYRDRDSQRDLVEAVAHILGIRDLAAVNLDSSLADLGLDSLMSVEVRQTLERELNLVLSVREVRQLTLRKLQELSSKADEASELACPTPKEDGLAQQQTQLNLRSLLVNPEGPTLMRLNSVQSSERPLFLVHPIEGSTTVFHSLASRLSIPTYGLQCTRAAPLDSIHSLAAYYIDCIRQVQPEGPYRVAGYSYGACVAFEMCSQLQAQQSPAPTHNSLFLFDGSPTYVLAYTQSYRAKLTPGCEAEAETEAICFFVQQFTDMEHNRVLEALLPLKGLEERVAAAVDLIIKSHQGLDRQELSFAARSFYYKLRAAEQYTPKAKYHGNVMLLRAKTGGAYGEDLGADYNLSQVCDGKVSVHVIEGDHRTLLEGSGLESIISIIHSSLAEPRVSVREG
For assay [6], the target named is T3, Fatty acid synthase. Put plainly: FAS thioesterase domain inhibitors, dose response, biochemical, endpoint fluorescence intensity, uHTS hits (AID 624327).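 Note: fluorescence from hydrolysis of an O-methyl fluorescein acyl ester substrate by the enzyme.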 The format is functional.
Assay [7] in a line: cytotoxicity toward DRD oncogenic fibroblasts, dose response, cell-based, non-viral oncogenic, luminescence (AID 1934). Conditions: Homo sapiens. The format is functional.
The target in assay [8] is T4, Polyadenylate-binding protein 1 (Homo sapiens, UniProt P11940). Put plainly: PABP1 MLLE–PAM2 binding inhibitor potency, dose response, biochemical, fluorescence polarization, FITC-PAM2 peptide (AID 602259). The settings on record: read-out: IC50_Mean. It is filed as functional.
T4 sequence (P11940 whole entry): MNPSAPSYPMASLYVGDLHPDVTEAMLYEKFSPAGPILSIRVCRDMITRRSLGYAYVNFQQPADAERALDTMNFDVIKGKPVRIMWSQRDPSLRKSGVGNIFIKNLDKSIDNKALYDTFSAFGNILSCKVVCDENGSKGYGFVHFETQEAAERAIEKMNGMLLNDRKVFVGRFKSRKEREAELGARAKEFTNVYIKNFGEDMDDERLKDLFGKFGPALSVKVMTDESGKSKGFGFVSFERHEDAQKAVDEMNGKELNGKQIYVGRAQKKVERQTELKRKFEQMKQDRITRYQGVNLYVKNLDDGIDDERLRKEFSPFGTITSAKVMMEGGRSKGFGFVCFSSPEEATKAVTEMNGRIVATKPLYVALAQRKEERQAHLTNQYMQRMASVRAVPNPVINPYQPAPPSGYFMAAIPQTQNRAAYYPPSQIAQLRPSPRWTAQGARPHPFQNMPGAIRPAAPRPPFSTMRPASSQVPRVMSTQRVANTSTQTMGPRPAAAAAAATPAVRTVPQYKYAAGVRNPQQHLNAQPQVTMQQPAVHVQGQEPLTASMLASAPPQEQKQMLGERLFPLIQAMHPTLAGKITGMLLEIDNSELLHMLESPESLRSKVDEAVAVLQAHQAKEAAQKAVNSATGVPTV
A further assay addresses Paired box protein Pax-8 (Homo sapiens, UniProt Q06710). As to the kind of experiment: inhibitors of PAX8-driven TPO luciferase reporter, dose response, RMG-I cells, cherry-pick (AID 687027).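 Note: luciferase reporter driven by Pax8 target thyroperoxidase promoter measured by SteadyGlo luminescence.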 It is filed as functional, cell-based. A general note: Reporter assays use an easily measured gene product as a stand-in for the process of interest.
In assay [9] the test system is BJ. Put plainly: cells. Conditions: Homo sapiens. It is filed as functional, cell-based.
Assay [10] deals with Heat shock protein HSP 90-alpha (Homo sapiens, UniProt P07900). The format is functional, organism-based.
Assay [11] in a line: cells. It is filed as functional, cell-based.
The target of assay [12] is T4, Polyadenylate-binding protein 1. As to the kind of experiment: PABP1 MLLE–PAM2 interaction inhibitors, dose response, miRNA deadenylation inhibitor project, biochemical, fluorescence polarization, Cy5-PAM2 peptide, secondary (AID 602260). The settings on record: read-out: IC50_Mean. It is filed as functional.
Assay [13] can be described thus: cells. It is filed as functional, cell-based. This is another data set of the same source.
The test system of another assay is INS1. Put plainly: beta cell apoptosis inhibitors, cytokine rescue, dose response, luminescence, retest (AID 449756).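 Note: cell death triggered by IL-1 beta plus TNF-alpha plus IFN-gamma mixture; protective hits raise ATP signal compared with cytokine alone wells.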 Conditions: Rattus norvegicus. The format is functional, cell-based.
Assay [14] concerns BJ. As to the kind of experiment: cytotoxicity toward BJ-TERT-LT-ST fibroblasts, dose response, cell-based, RAS-independent, luminescence (AID 1935).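 Note: BJ fibroblasts immortalized with TERT plus LT and ST oncogenes.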 The format is functional. Conditions: Homo sapiens.
Assay [15] concerns BJ. As to the kind of experiment: cytotoxicity toward BJ-TERT fibroblasts, dose response, cell-based, RAS-independent, luminescence (AID 1933). It is filed as functional. Conditions: Homo sapiens.
A short description of assay [16]: ZM109 Env clade C HIV-1 fusion inhibitors, dose response, HeLa effector, CEM target cells, luciferase, cherry-pick (AID 652058). The format is functional, cell-based.
Assay [17] can be described thus: inhibitors of clade B AD8 Env fusion, dose response, cell-based, cherry-pick (AID 652062).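 Note: luciferase signal from cell-cell fusion driven by HIV-1 clade B AD8 Env; potency is for inhibitors of fusion seen as a drop in luminescence.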 The format is functional.
Assay [18] is described as follows: off-target signal loss in HeLa-CEM21 co-culture – HeLa F-luc CTL cells, cherry-picked, counter-screen for HIV-1 Env fusion inhibitor project, dose response (AID 652040).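 Note: potency for signal decrease marking cytotoxic or nonspecific inhibition.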 The format is functional, cell-based. In general terms: Counterscreens check selectivity or assay interference.
A short description of assay [19]: inhibitors of HIV Env-driven cell fusion, dose response, cherry-pick (AID 652057). The format is functional, cell-based.
Assay [20] can be described thus: cells. The format is functional.
Assay [21] is described as follows: Luminescence Cell-Based Dose Response HTS to Identify Inhibitors of 5'UTR Stem-Loop Driven Prion Protein mRNA Translation in H4 Neuroglioblastoma Cells. [Related pubchem assays: 1827 (Project Summary), 1813 (Primary HTS)]. It is filed as functional.
The nature of assay [22]: inhibitors of firefly luciferase expression or activity, dose response, H4 neuroglioma cells, luminescence (AID 1990). It is filed as functional, cell-based.
Assay [23] is described as follows: inhibitors of SNCA 5'UTR-driven reporter translation, confirmation, H4 neuroglioma cells, luminescence (AID 1988). The format is functional, cell-based.
A short description of assay [24]: Luminescence Cell-Based Dose Confirmation HTS to Identify Inhibitors of Platelet Dense Granule Release. [Related pubchem assays: 1663 (Primary HTS), 1678 (Summary of Project)]. The format is functional.
The target of assay [25] is Luciferin 4-monooxygenase (Photinus pyralis, UniProt P08659). As to the kind of experiment: firefly luciferase enzyme inhibitors, dose response, biochemical, luminescence (AID 1891).
Luciferin 4-monooxygenase, sequence (P08659 whole entry): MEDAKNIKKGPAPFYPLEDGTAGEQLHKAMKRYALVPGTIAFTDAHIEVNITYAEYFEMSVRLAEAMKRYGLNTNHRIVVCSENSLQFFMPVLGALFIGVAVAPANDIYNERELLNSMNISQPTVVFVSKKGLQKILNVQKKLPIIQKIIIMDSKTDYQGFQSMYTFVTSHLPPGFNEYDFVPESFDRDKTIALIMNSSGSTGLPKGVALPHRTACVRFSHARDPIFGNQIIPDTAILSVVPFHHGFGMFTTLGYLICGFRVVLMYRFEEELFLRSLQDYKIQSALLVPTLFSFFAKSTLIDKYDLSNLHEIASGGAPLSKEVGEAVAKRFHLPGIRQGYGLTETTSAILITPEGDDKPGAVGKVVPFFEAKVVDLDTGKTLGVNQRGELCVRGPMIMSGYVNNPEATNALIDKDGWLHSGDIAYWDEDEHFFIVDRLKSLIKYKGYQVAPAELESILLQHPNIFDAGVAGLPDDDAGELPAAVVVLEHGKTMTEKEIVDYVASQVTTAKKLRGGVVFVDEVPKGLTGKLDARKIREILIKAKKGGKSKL
Assay [26] deals with Induced myeloid leukemia cell differentiation protein Mcl-1 (Homo sapiens, UniProt Q07820). The format is functional.
Induced myeloid leukemia cell differentiation protein Mcl-1, sequence (Q07820 whole entry): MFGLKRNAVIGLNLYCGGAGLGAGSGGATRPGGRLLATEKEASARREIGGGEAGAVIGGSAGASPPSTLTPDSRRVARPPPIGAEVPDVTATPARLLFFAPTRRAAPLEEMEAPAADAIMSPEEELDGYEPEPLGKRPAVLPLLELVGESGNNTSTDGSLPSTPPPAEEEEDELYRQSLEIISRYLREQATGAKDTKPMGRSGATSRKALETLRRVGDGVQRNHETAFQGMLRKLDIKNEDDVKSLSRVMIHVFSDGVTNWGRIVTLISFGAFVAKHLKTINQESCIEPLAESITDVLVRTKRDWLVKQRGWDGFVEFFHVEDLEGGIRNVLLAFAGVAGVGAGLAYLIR

Paired box protein Pax-8, sequence (Q06710 whole entry): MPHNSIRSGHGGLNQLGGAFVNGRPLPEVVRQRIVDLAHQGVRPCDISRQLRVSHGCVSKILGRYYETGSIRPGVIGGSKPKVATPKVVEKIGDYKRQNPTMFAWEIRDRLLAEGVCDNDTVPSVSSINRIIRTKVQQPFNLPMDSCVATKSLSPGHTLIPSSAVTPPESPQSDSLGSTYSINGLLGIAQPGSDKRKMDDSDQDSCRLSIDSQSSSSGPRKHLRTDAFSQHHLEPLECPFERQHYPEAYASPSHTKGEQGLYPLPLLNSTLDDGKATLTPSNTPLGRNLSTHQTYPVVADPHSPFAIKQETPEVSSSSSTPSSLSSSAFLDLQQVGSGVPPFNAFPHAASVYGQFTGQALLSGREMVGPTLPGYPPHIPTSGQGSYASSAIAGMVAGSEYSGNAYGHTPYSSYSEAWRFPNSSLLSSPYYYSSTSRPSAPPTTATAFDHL

As usually defined, the EC50 is the concentration needed to bring the measured effect to its halfway point. Consider `CCCCc1ccc(NC(=O)CSC2=NN3CCCC(=O)N=C3S2)cc1`, for which the EC50 in assay [1] and in assay [3] was > 300 µM (not active) in each case. The CC50 in [2] is > 40 µM (active).

As a reminder, the AC50 is the concentration giving half of the maximal activity seen. In the case of `COc1ccc2c3c(n(C)c2c1)[C@H](CO)N(C(=O)Nc1ccc(F)cc1)CC31CCN(Cc2ccccn2)CC1`, in assay [4], the AC50 was 3.43 µM (active).

As for `N#CCCSc1nc(N2CCOCC2)c2c(c1C#N)CCCC2`, the IC50 at Fatty acid synthase [5] was 5.49 µM (active); on Fatty acid synthase [6], 7.57 µM (active).

With `N#C[C@@H]1[C@@H](c2ccccc2C2=CCCC2)[C@H](CO)N1C(=O)C1CC1`, the AC50 in [4] is > 36 µM (inactive).

As for `O=C(O)CC(NC(=O)CCC1CCCCC1)c1cc([N+](=O)[O-])ccc1Cl` (stereo not drawn), the IC50 at Fatty acid synthase [5] was 8.7 µM (active); at Fatty acid synthase [6] it was 10.7 µM (active).

Turning to `Oc1ccc2ccccc2c1N=Nc1nccs1`, the EC50 was 10.3 µM (active) in assay [7]; 2.03 µM (active) in the assay with BJ [9]; 40.4 µM (active) in “cells [11]”; 40.5 µM (active) in “cells [13]”; 2.91 µM (active) in the assay with BJ [14]; 1.32 µM (active) in the assay on BJ [15]. Also, the IC50 in [8] and in assay [12] was > 66 µM (inactive) each time. For the same compound, the values for the AC50 (on Paired box protein Pax-8; in [10]; with INS1) were 2.92 µM (active), 0.932 µM (active) and 0.666 µM (active), respectively. Besides, the CC50 in [2] is 17.8 µM (active).

Regarding `CO[C@@H]1CN(C)C(=O)c2cc(NC(=O)Nc3ccc(C(F)(F)F)cc3)ccc2OC[C@H](C)NC[C@@H]1C`, the AC50 in [4] is 5.85 µM (active).

Take `CCCCCOc1ccc(N2C(=O)C3C4C=CC(C3C2=O)N(C)C4=O)cc1` (stereo not drawn): the CC50 in assay [2] is > 40 µM (active).

With `Cc1cc(C)cc(-n2c(C)c3c(C)nnc(C)c3c2C)c1`, the CC50 in assay [2] is > 40 µM (active).

Take `CCN(CC)S(=O)(=O)c1ccc(N2CCCC2)c(NC(=O)Cc2cc(OC)c(OC)c(OC)c2)c1`: the AC50 in assay [16] was 5.2 µM (active); in assay [17], 7.04 µM (active); in assay [18] it was 6.7 µM (active); in assay [19], 3.42 µM (active).

With `Cc1cc(OCc2cc(C(=O)N(C)CCc3cnn(C)c3)no2)cc(C)c1Cl`, the IC50 in “cells [20]” was 29.6 µM (active). Moreover, the CC50 in assay [2] was > 40 µM (active).

For the compound `CNC(=S)N(Cc1ccc(OC)cc1)C1CC(=O)N(c2ccc(Cl)cc2)C1=O` (stereo not drawn), the IC50 was 9.36 µM (active) at Fatty acid synthase [5] and 11 µM (active) on Fatty acid synthase [6].

On to `COc1ccc(-c2ccc3c(c2)[C@@H]2[C@@H](CCN2Cc2ccncc2)[C@@H](CO)N3)cc1`, for which the AC50 in assay [4] was 8.88 µM (active).

For `O=C(NCc1ccccc1)/C(=C\c1cccc([N+](=O)[O-])c1)NC(=O)c1ccco1`, the IC50 at Fatty acid synthase [5] is 4.06 µM (active); on Fatty acid synthase [6] it was 5.46 µM (active).

Consider `Cc1ccc(Cn2nnnc2CN2CCC(c3nc4cc(Cl)ccc4[nH]3)CC2)cc1`, for which the results for the half-maximal activity concentration (AC50) in [16] and in assay [19] were 2.37 µM (active) and 19.5 µM (active), respectively. In addition, the 50% effective concentration (EC50) was 10.5 µM (active) in assay [21], 7.23 µM (active) in assay [22] and 2.45 µM (active) in assay [23]. Further, the CC50 in [2] was 6.84 µM (active).

`COc1ccc(Cl)cc1NC(=O)Nc1cnccn1`: the AC50 is 37.9 µM (active) in assay [16], 14.2 µM (active) in assay [17], 2.19 µM (active) in assay [18] and 3.57 µM (active) in [19]. The EC50 in [24] and in [25] was > 112 µM (not active) throughout.

With `COc1ccc2nc(Nc3sc4c(c3C(N)=O)CCCC4)sc2c1`, in [26], the IC50 is 8.79 µM (active).
